Test results from the NIST ThermoML archive (doi:10.1016/j.jct.2014.09.005).
Numbers after ± are expanded uncertainties.

Tests used:
[1] = refractive index (Na D-line) (dimensionless); settings: 101.33 kPa, Liquid, Standard Abbe refractometry
[2] = 101.33 kPa, Liquid; for viscosity: Capillary tube (Ostwald / Ubbelohde) method; for mass density: Vibrating tube method

| refractive index ([1]; 293.15 K) | refractive index ([1]; 298.15 K) | refractive index ([1]; 303.15 K) | viscosity ([2]; 293.15 K) | mass density ([2]; 293.15 K) | viscosity ([2]; 298.15 K) | mass density ([2]; 298.15 K) | viscosity ([2]; 303.15 K) | mass density ([2]; 303.15 K) | SMILES |
| --- | --- | --- | --- | --- | --- | --- | --- | --- | --- |
| 1.45936 ± 0.00037 | 1.45694 ± 0.00037 | 1.45427 ± 0.00037 | 2.142 ± 0.046 mPa·s | 867.2 ± 0.24 kg/m3 | 1.909 ± 0.041 mPa·s | 862.69 ± 0.24 kg/m3 | 1.699 ± 0.036 mPa·s | 858.12 ± 0.24 kg/m3 | NC1CCCCC1 [cyclohexylamine] |
| 1.43728 ± 0.00037 | 1.43531 ± 0.00037 | 1.43345 ± 0.00037 | 14.52 ± 0.3 mPa·s | 829.97 ± 0.24 kg/m3 | 11.82 ± 0.25 mPa·s | 826.58 ± 0.24 kg/m3 | 9.738 ± 0.2 mPa·s | 823.13 ± 0.24 kg/m3 | CCCCCCCCCCO [decan-1-ol] |
| 1.42429 ± 0.00037 | 1.42227 ± 0.00037 | 1.42023 ± 0.00037 | 7.106 ± 0.15 mPa·s | 822.52 ± 0.24 kg/m3 | 5.966 ± 0.13 mPa·s | 818.99 ± 0.24 kg/m3 | 4.841 ± 0.1 mPa·s | 815.4 ± 0.24 kg/m3 | CCCCCCCO [heptan-1-ol] |
